The subject of data set [1] is E. coli BW25113. As to the kind of experiment: Checkerboard assay with erythromycin. The format is cell-based, Escherichia coli. The note with it: for MSCery: erythromycin concentration in the combination with the synergist giving the lowest FICi, E. coli BW25113; for MIC of the peptide (MICpep): synergist alone, from checkerboard with erythromycin; for MIC of the peptide (MICpep) / MSCpeptide, minimum synergistic concentration: E. coli BW25113, LB, 20 h 37 °C; for MSCpeptide, minimum synergistic concentration: synergist concentration in the combination with erythromycin giving the lowest FICi, OD600.

Data set [2] relates to E. coli BW25113. As to the kind of experiment: LPS competition assay. The settings on record: E. coli BW25113, LB, 20 h 37 °C, visual read-out. The format is cell-based, Escherichia coli. The procedure: One colony from a blood agar plates was inoculated in Lysogeny Broth (LB) at 37 °C until a 0.5 optical density at 600 nm (OD600) was reached (compared to the sterility control of LB). The bacterial suspension was diluted in fresh LB to 2.0 × 10^6 CFU/mL. The serial dilutions were prepared in polypropylene microtiter plates: a stock of the test compounds was prepared with a 2x final concentration in LB. Moreover, 100 µL of the stock was added to the wells of the top row of which 50 µL was used for the serial dilution. The bottom row of each plate was used as the positive (50 µL of LB) and negative controls (100 µL of LB) (6 wells each). Furthermore, 50 µL of the 2.0 × 10^6 CFU/mL bacterial stock was added to each well except for the negative controls, adding up to a total volume of 100 µL per well. The plates were sealed with a breathable seal and incubated for 20 h at 37 °C and 600 rpm.
The same protocol as the MIC assay was used to prepare the serial dilution of the compounds in 96-wells plates in duplicate resulting in two identical plates. A serial dilution of colistin was taken along as a control. The inoculation and preparation of the bacteria stock was performed as described for the MIC assay. The stock of bacteria was then split into two stocks. […] The normal bacteria stock was added to the remaining plate as described in the MIC assay.

Data set [3] concerns defibrinated sheep blood (red blood cells). In words: Hemolysis assay. The format is cell-based. The note with it: 200 µg/mL compound, 20 h incubation at 37 °C with defibrinated sheep blood, PBS 0.002% Tween20, absorbance 415 nm, relative to 0.1% Triton X-100; n=3 technical replicates. Put shortly: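 % hemolysis is supernatant absorbance at 415 nm, minus the buffer-only background, relative to 0.1% Triton X-100 lysis. Compound dilutions (200–1.56 µg/mL before adding cells) were incubated with an equal volume of red cells for 20 h at 37 °C and 500 rpm. Cells were washed and normalized in PBS/0.002% Tween20 to about 2.5 A415 at full lysis.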

Converted amounts (≈) assume the structure as drawn. “And” between values parts separate entries of the source, which are not always exact repeats. Equal entries are not always repeated. Peptide text beside a SMILES is read from it.

In the case of `CC[C@H](C)[C@H](NC(=O)[C@@H](NC(=O)[C@H](CCCCN)NC(=O)[C@H](CCC(N)=O)NC(=O)[C@@H](NC(=O)[C@H](Cc1c[nH]c2ccccc12)NC(=O)[C@H](CCCCN)NC(=O)[C@H](CCCCN)NC(=O)[C@H](CC(C)C)NC(=O)[C@H](CCCNC(=N)N)NC(=O)[C@H](Cc1ccccc1)NC(=O)[C@@H](N)C(C)C)[C@@H](C)CC)C(C)C)C(N)=O` [peptide 6] (H-VFRLKKWIQKVI-NH2), in the data set with E. coli BW25113 [1], the MSCery was 12.5 µg/mL; the “MIC of the peptide (MICpep)” value amounted to 12.5 µg/mL; the “MSCpeptide, minimum synergistic concentration” value is 3.125 µg/mL and 3.13 µg/mL. The “MIC + 1.0 mg/ml LPS” value in the data set with E. coli BW25113 [2] (in the presence of 1 mg/mL LPS) is on record as 200 µg/mL. Also, in the data set with E. coli BW25113 [2] (without LPS), the minimum inhibitory concentration (MIC) was 12.5 µg/mL (≈ 8.03 µM). The Hemolysis in data set [3] was determined as 4.0%.
For `CC[C@H](C)[C@H](NC(=O)[C@@H](NC(=O)[C@H](CCCCN)NC(=O)[C@H](CCC(N)=O)NC(=O)[C@@H](NC(=O)[C@H](Cc1c[nH]c2ccccc12)NC(=O)[C@H](CCCCN)NC(=O)[C@H](CCCCN)NC(=O)[C@H](CC(C)C)NC(=O)[C@H](C)NC(=O)[C@H](Cc1ccccc1)NC(=O)[C@@H](N)C(C)C)[C@@H](C)CC)C(C)C)C(N)=O` [peptide 10] (H-VFALKKWIQKVI-NH2), in the data set on E. coli BW25113 [1], the MSCery is 3.125 µg/mL; the “MIC of the peptide (MICpep)” value is reported as 100 µg/mL; the “MSCpeptide, minimum synergistic concentration” value was 12.5 µg/mL. For the same compound, in data set [3], the Hemolysis is 3.8% and 4%.
On to `CC[C@H](C)[C@H](NC(=O)[C@@H](NC(=O)[C@H](CCCCN)NC(=O)[C@H](CCC(N)=O)NC(=O)[C@@H](NC(=O)[C@H](C)NC(=O)[C@H](CCCCN)NC(=O)[C@H](CCCCN)NC(=O)[C@H](CC(C)C)NC(=O)[C@H](CCCNC(=N)N)NC(=O)[C@H](Cc1ccccc1)NC(=O)[C@@H](N)C(C)C)[C@@H](C)CC)C(C)C)C(N)=O` [peptide 14] (H-VFRLKKAIQKVI-NH2), for which, in the data set on E. coli BW25113 [1], the MSCery came to 12.5 µg/mL; the “MIC of the peptide (MICpep)” value is on record as above 200 µg/mL; the “MSCpeptide, minimum synergistic concentration” value came to 6.25 µg/mL. In addition, the Hemolysis in data set [3] was 0.9% and 1%.
As for `CC[C@H](C)[C@H](NC(=O)[C@H](Cc1c[nH]c2ccccc12)NC(=O)[C@H](CCCCN)NC(=O)[C@H](CCCCN)NC(=O)[C@H](CC(C)C)NC(=O)[C@H](CCCNC(=N)N)NC(=O)[C@H](Cc1ccccc1)NC(=O)[C@@H](N)C(C)C)C(=O)N[C@@H](CCC(N)=O)C(=O)N[C@@H](CCCCN)C(=O)N[C@H](C(=O)N[C@@H](C)C(N)=O)C(C)C` [peptide 19] (H-VFRLKKWIQKVA-NH2), in the data set on E. coli BW25113 [1], the MSCery was 12.5 µg/mL; the “MIC of the peptide (MICpep)” value came out at 100 µg/mL; the “MSCpeptide, minimum synergistic concentration” value is 3.125 µg/mL. Also, in data set [3], the Hemolysis was found to be 1.0%.

The values above are taken from article PMC8037310, “Thrombin-Derived Peptides Potentiate the Activity of Gram-Positive-Specific Antibiotics against Gram-Negative Bacteria” (Molecules, 2021).
